How the values were obtained:
[1] = Inhibition of mouse liver HDAC by fluorescence assay
[2] = test system: U-251; test: Cytotoxicity against human U251 cells by MTT assay; type: functional
[3] = test system: NCI-H460; test: Cytotoxicity against human NCI-H460 cells by MTT assay; type: functional
[4] = test system: HCT-116; test: Cytotoxicity against human HCT116 cells by MTT assay; type: functional
[5] = test system: Mus musculus; test: Toxicity in SCID mouse xenografted with human NCI-H460 cells assessed as loss in body weight at 5 mg/kg, ip qd for 21 days relative to control; type: organism-based; set-up: dose 5 mg/kg, route intraperitoneal; details: in vivo, 504 h
[6] = test system: NCI-H460; test: Antitumor activity against human NCI-H460 cells xenografted in SCID mouse assessed as tumor growth inhibition at 5 mg/kg, ip qd for 21 days; type: functional; details: 504 h, route intraperitoneal, read-out: TGI
[7] = Toxicity in SCID mouse xenografted with human NCI-H460 cells; type: organism-based; details: in vivo

Row | Structure (SMILES) | IC50 [1] [nM] | GI50 [2] [nM] | GI50 [3] [nM] | GI50 [4] [nM] | Activity [5] [%] | inhibition in vivo at 5 mg/kg [6] [%] | MTD [7] [mg/kg]
1 | O=C(/C=C/c1ccc(CNC23CC4CC(CC(Cl)(C4)C2)C3)cc1)NO | 40 | 14000 | 4000 | 11000 | – | – | –
2 | O=C(/C=C/c1ccc(CNC(=O)C23CC4CC(CC(C4)C2)C3)cc1)NO | 67 | 170 | 100 | 100 | – | – | –
3 | O=C(/C=C/c1ccc(CNCC23CC4CC(CC(C4)C2)C3)cc1)NO | 1.1 | 800 | 300 | 500 | – | – | –
4 | O=C(/C=C/c1ccc(CNC(=O)C23CC4CC(CC(F)(C4)C2)C3)cc1)NO | 77 | 1900 | 500 | 500 | – | – | –
5 | O=C(/C=C/c1ccc(CNC(=O)CC23CC4CC(CC(C4)C2)C3)cc1)NO | 1.8 | 1600 | 1300 | 1100 | – | – | –
6 | O=C(/C=C/c1ccc(CNC2C3CC4CC(C3)CC2C4)cc1)NO (stereo unspecified) | 60 | 170 | 70 | 80 | – | – | –
7 | O=C(/C=C/c1ccc(CNCC23CC4CC(CC2C4)C3)cc1)NO | 0.02 | 30 | 10 | 10 | < 10 | 45 | 7.5
8 | CC(NCc1ccc(/C=C/C(=O)NO)cc1)C12CC3CC(CC1C3)C2 (stereo unspecified) | 0.03 | 50 | 30 | 30 | – | – | –
9 | CCOC12CC3CC(CC(NCc4ccc(/C=C/C(=O)NO)cc4)(C3)C1)C2 | 460 | 2800 | 6000 | 1000 | – | – | –
10 | O=C(/C=C/c1ccc(CNC23CC4CC(CC(O)(C4)C2)C3)cc1)NO | 250 | 4200 | 8000 | 3000 | – | – | –
11 | O=C(/C=C/c1ccc(CNC23CC4CC(CC(CO)(C4)C2)C3)cc1)NO | 240 | 6000 | 9500 | 2800 | – | – | –
12 | O=C(CCCCCCC(=O)Nc1ccccc1)NO [VORINOSTAT] | – | 2000 | 1000 | 1000 | – | – | –

Further lines, with some results ahead:

Row | IC50 [1] [nM] | Structure (SMILES) | GI50 [2] [nM] | GI50 [3] [nM] | GI50 [4] [nM] | Activity [5] [%] | inhibition in vivo at 5 mg/kg [6] [%] | MTD [7] [mg/kg]
13 | 6 | O=C(/C=C/c1ccc(CNCC23CC4CC(CC(F)(C4)C2)C3)cc1)NO | 180 | 30 | 30 | – | – | –
14 | 0.9 | O=C(/C=C/c1ccc(CNCCC23CC4CC(CC(C4)C2)C3)cc1)NO | 1300 | 1100 | 450 | – | – | –
15 | 8 | O=C(/C=C/c1ccc(CNC(=O)CC2C3CC4CC(C3)CC2C4)cc1)NO (stereo unspecified) | 260 | 400 | 500 | – | – | –
16 | 0.28 | O=C(/C=C/c1ccc(CNCCC2C3CC4CC(C3)CC2C4)cc1)NO (stereo unspecified) | 50 | 10 | 60 | – | – | –
17 | 110 | O=C(/C=C/c1ccc(CN2CC3CC4CC(C3)CC2C4)cc1)NO | 1700 | 4900 | 1800 | – | – | –
18 | 25 | O=C(/C=C/c1ccc(CNC(=O)C23CC4CC(CC2C4)C3)cc1)NO | 600 | 350 | 380 | – | – | –
19 | 70 | O=C(/C=C/c1ccc(CNC23CC4CC(CC(C4)C2)C3)cc1)NO | 2700 | 2800 | 500 | – | – | –
20 | 260 | COC12CC3CC(CC(NCc4ccc(/C=C/C(=O)NO)cc4)(C3)C1)C2 | 7000 | 7000 | 1600 | – | – | –
21 | 440 | O=C(/C=C/c1ccc(CNC23CC4CC(C2)CC(c2ccccc2)(C4)C3)cc1)NO | 3200 | 5000 | 2200 | – | – | –

Source: ChEMBL document CHEMBL2375347, “Discovery of adamantane based highly potent HDAC inhibitors” (Bioorg Med Chem Lett, 2013)
